The test system of one data set is hepatitis C. Particulars: medical treatment of hepatitis C; cited from earlier work.
For another data set, the target named is T1, HCV RNA polymerase (Hepatitis C virus genotype 1b, UniProt Q9WMX2).
T1 construct: Expression and purification of HCV RNA polymerase were performed in accordance with known processes; made in house
As to the kind of experiment: Inhibitory effect on HCV RNA polymerase activity ([α-32P]UTP incorporation, poly(A)/oligo(U)). The class given is biochemical. Particulars: 10 uM UTP, 30° C. for 30 minutes; read-out: 50% inhibitory concentration for HCV RNA polymerase. The protocol: Inhibitory effect on an HCV RNA polymerase activity of the compounds of Synthetic Example 12, Synthetic Example 13, Synthetic Example 19, Synthetic Example 21 and Synthetic Example 22 described above was measured by the following process.
Expression and purification of HCV RNA polymerase were performed in accordance with known processes (V. Lohman et al., VIROLOGY, 249, 108-118, 1998).
The purified HCV RNA polymerase in an amount of 200 ng was mixed with 100 ng/mL poly(A)RNA (polyadenine RNA) as a template RNA and 25 ng/mL 15-mer oligo(U)RNA (oligouridine having 15 bases, TAKARA Shuzo) as a primer RNA in 50 μL of an aqueous solution containing 20 mM Tris-Cl (pH 7.5), 5 MM MgCl2, 25 mM KCl, 10 uM UTP (Uridine-triphosphate), 0.25 Ci/mL [α-^32P]UTP (Amersham, PB10203). Then, thereto was added the compound of Synthetic Example 12, Synthetic Example 13, Synthetic Example 19, Synthetic Example 21 or Synthetic Example 22, followed by an RNA synthetic reaction at 30° C. for 30 minutes.
After completing the reaction, RNA in the solution was absorbed on DE81 paper (Whattman). Then, [α-^32P]UTP which was not incorporated into the synthesized RNA was washed out with 0.5 M phosphate buffer, and the quantity of [α-^32P]UTP which was incorporated into the synthesized RNA on the DE81 paper was determined on a liquid scintillation counter.
Inhibitory potency of the compounds of Synthetic Example 12, Synthetic Example 13, Synthetic Example 19, Synthetic Example 21 and Synthetic Example 22 was represented by 50% inhibitory concentration when the negative control without HCV RNA polymerase was assumed as 0% while the positive control without the compound was assumed as 100%.

The next data set has as its system MT-2C cells. In words: Yield of total cellular RNA of HCV-infected MT-2C cells (cell injury). The class given is cell-based, human. To be noted: 0.1-10 μM compound, 7 days culture. As to the method:
MT-2C cells that are cells derived from human T cells (Kato, N. et. al., Biochem. Biophs. Res. Commun. 206, 863-869, 1995) were cultured in an RPMI 1640 medium (Gibco-BRL 11875-101) supplemented with FBS (Foetal Bovine Serum, Gibco-BRL10082-147) at 10%. Thus cultured MT-2C cells (1×10^6 cells) were suspended in 200 uL of an F-12 medium (Gibco-BRL 11059-029) added with EDTA (ethylenediamine tetraacetic acid) to yield final concentration of 5 mM. Thereto was added 20 μL of a serum derived from a hepatitis C patient, followed by infection at 37° C. for 2 hours. After the infection, the cells were washed three times with 1 mL of PBS (Phosphate buffered saline), suspended in 6 mL of an RPMI medium added with FBS at 10%. The suspended cells were seeded on a 48 well culture plate, and incubated in a CO2 incubator at 32° C. for 3 days. Thereto was added the compound of Synthetic Example 1, Synthetic Example 2, Synthetic Example 10 or Synthetic Example 11 dissolved in DMSO (Dimethyl Sulfoxide) in an amount of thousandths of the medium, and the mixture was cultured for 3 days. A medium adjusted to have the same concentration of the identical compound was added to each well in a two-fold volume, followed by an additional culture for 4 days. Cells were harvested for each of the samples, and total cellular RNA was purified. For the RNA purification, ISOGEN (NIPPON GENE, 311-02501) was used. In order to quantitatively determine an HCV RNA genome in the purified RNA, the following operation was carried out.

The subject of a further data set is Hepatitis C Virus (HCV). As to the kind of experiment: Inhibitory effect on HCV proliferation in infected MT-2C cells (nested RT-PCR detection limit dilution of HCV genome). To be noted: for detection of HCV genome in diluted RT product: FIG. 2, negative control detected up to 10-fold or 30-fold dilution. Format: cell-based. The protocol:
Inhibitory effect on HCV proliferation of the compounds of Synthetic Example 1, Synthetic Example 2, Synthetic Example 10 and Synthetic Example 11 described above was measured by the following process.
Measurement of anti HCV proliferation inhibitory activity was performed in accordance with a known process (Kato, N. et. al., Biochem. Biophs. Res. Commun. 206, 863-869, 1995).
MT-2C cells that are cells derived from human T cells (Kato, N. et. al., Biochem. Biophs. Res. Commun. 206, 863-869, 1995) were cultured in an RPMI 1640 medium (Gibco-BRL 11875-101) supplemented with FBS (Foetal Bovine Serum, Gibco-BRL10082-147) at 10%. Thus cultured MT-2C cells (1×10^6 cells) were suspended in 200 uL of an F-12 medium (Gibco-BRL 11059-029) added with EDTA (ethylenediamine tetraacetic acid) to yield final concentration of 5 mM. Thereto was added 20 μL of a serum derived from a hepatitis C patient, followed by infection at 37° C. for 2 hours. After the infection, the cells were washed three times with 1 mL of PBS (Phosphate buffered saline), suspended in 6 mL of an RPMI medium added with FBS at 10%. The suspended cells were seeded on a 48 well culture plate, and incubated in a CO2 incubator at 32° C. for 3 days.
Thereto was added the compound of Synthetic Example 1, Synthetic Example 2, Synthetic Example 10 or Synthetic Example 11 dissolved in DMSO (Dimethyl Sulfoxide) in an amount of thousandths of the medium, and the mixture was cultured for 3 days. A medium adjusted to have the same concentration of the identical compound was added to each well in a two-fold volume, followed by an additional culture for 4 days. Cells were harvested for each of the samples, and total cellular RNA was purified. For the RNA purification, ISOGEN (NIPPON GENE, 311-02501) was used. In order to quantitatively determine an HCV RNA genome in the purified RNA, the following operation was carried out.
Using 1 μg of the purified RNA, a reverse transcription reaction was performed in a total volume of 20 uL at 37° C. for 1 hour. Subsequently, an inactivation treatment of the reverse transcriptase was carried out at 100° C. for 30 minutes. SuperScript™ II (Gibco BRL 18064-014) was used as a reverse. transcriptase, and an oligoDNA (Gibco BRL) having 20 bases which are complementary to the sequence of base position 317 through base position 336 of HCV-J strain (Kato, N. et. al. Proc. Natl. Acad. Sci. USA 87, 9524-9528, 1990) was used as a primer.
Product of the reverse transcription reaction was diluted to 3-fold, 10-fold, 30-fold and 100-fold with sterilized and distilled water. First PCR (Polymerase Chain Reaction), (34 cycles of: at 94° C. for 1 minute, at 58° C. for 45 seconds and at 72° C. for 1 minute; and 1 cycle of: at 94° C. for 1 minute, at 58° C. for 1 minute and 40 seconds and at 72° C. for 8 minutes) was performed in a total volume of 50 μL using 3 μL of the diluted product of the reverse transcription reaction. EX-Taq (TAKARA RR001A) was used as a DNA synthetase, while an oligoDNA (GibcoBRL) having 20 bases which correspond to the sequence of base position 71 through base position 90 and an oligoDNA (Gibco BRL) having 20 bases which are complementary to the sequence of base position 317 through base position 336 of HCV-J strain were used as primers. […]

The test system of data set [1] is proximate viruses of the hepatitis C virus (viruses having (+)-chain single stranded RNA in their genome). To be noted: cited from earlier work.

T1 sequence (Q9WMX2 2420-3010): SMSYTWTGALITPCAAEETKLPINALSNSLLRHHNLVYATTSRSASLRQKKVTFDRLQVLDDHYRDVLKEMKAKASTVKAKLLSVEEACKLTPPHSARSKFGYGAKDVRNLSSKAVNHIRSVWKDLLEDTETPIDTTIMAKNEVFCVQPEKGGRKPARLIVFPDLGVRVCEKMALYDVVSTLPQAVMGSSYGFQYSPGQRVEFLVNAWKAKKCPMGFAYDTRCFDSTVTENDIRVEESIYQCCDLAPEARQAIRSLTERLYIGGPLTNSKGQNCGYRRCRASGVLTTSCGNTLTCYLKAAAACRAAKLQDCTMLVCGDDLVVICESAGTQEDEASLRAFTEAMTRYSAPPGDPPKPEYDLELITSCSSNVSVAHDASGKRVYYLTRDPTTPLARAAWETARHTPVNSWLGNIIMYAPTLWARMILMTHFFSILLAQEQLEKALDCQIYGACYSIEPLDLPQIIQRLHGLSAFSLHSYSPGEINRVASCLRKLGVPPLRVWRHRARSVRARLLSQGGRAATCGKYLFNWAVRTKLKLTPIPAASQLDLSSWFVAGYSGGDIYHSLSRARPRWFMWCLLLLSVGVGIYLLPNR

In the case of interferon, the efficacy result in the data set with hepatitis C is “not more than 30%”.
With `O=c1[nH]c(=O)n([C@@H]2O[C@H](COP(=O)(O)OP(=O)(O)OP(=O)(O)O)[C@@H](F)[C@H]2O)cc1F` [Synthetic Example 13, 3′-deoxy-5,3′-difluorouridine 5′-triphosphate], at HCV RNA polymerase, the IC50 amounted to 1 µM.
Turning to `O=c1[nH]c(=O)n([C@@H]2O[C@H](CO)[C@@H](F)[C@H]2O)cc1F` [Synthetic Example 2, 3′-deoxy-5,3′-difluorouridine], in the data set on MT-2C cells, the “yield of total RNA for each of the samples (injury on the cells)” value (“yield of total RNA” for short) is listed as “little or no alteration”.
Take `O=c1[nH]c(=O)n([C@H]2O[C@@H](CO)[C@H](F)[C@@H]2O)cc1F` [Synthetic Example 11, 1-(3′-deoxy-5,3′-difluoro-β-L-ribofuranosyl)uracil]: the “yield of total RNA” value in the data set on MT-2C cells is given as “little or no alteration”. The “detection of HCV genome in diluted RT product” value in the data set with Hepatitis C Virus (HCV) (1 μM added) is “could not be detected, except for one sample diluted to 10-fold”; in the data set with Hepatitis C Virus (HCV) (10 μM added) it was “could not be detected, except for one sample diluted to 10-fold”.
Consider `O=c1ccn([C@H]2O[C@@H](CO)[C@H](F)[C@@H]2O)c(=O)[nH]1` [Synthetic Example 10, 1-(3′-deoxy-3′-fluoro-β-L-ribofuranosyl)uracil], for which, in the data set on MT-2C cells, the “yield of total RNA” value is recorded as “little or no alteration”. Moreover, the “detection of HCV genome in diluted RT product” value is given as “could not be detected, except for one sample diluted to 10-fold” with Hepatitis C Virus (HCV) (1 μM added) and “could not be detected, except for one sample diluted to 10-fold” in the data set on Hepatitis C Virus (HCV) (10 μM added).
Consider `O=c1ccn([C@@H]2O[C@H](COP(=O)(O)OP(=O)(O)OP(=O)(O)O)[C@@H](F)[C@H]2O)c(=S)[nH]1` [Synthetic Example 19, 3′-deoxy-3′-fluoro-2-thiouridine 5′-triphosphate], for which the IC50 at HCV RNA polymerase amounted to 3 µM.
`O=c1ccn([C@@H]2O[C@H](COP(=O)(O)OP(=O)(O)OP(=O)(O)O)[C@@H](F)[C@H]2O)c(=O)[nH]1` [Synthetic Example 12, 3′-deoxy-3′-fluorouridine 5′-triphosphate]: the IC50 at HCV RNA polymerase is 0.3 µM.
Turning to `O=c1ccn([C@@H]2O[C@H](CO)[C@@H](F)[C@H]2O)c(=O)[nH]1` [Synthetic Example 1, 3′-deoxy-3′-fluorouridine], the “yield of total RNA” value in the data set on MT-2C cells is on record as “little or no alteration”. Besides, in the data set with Hepatitis C Virus (HCV) (1.0 μM added, FIG. 1, negative control detected up to 30-fold or 100-fold dilution), the “detection limit dilution (fold) of an HCV genome” value is given as “up to 3-fold or 10-fold”. Moreover, the “inhibitory activity on proximate viruses of the hepatitis C virus” value in data set [1] is “only a low inhibitory activity”.
Consider `O=c1[nH]c(=O)n([C@H]2O[C@@H](COP(=O)(O)OP(=O)(O)OP(=O)(O)O)[C@H](F)[C@@H]2O)cc1F` [Synthetic Example 22, 1-(3′-deoxy-5,3′-fluoro-β-L-ribofuranosyl)uracil 5′-triphosphate], for which, at HCV RNA polymerase, the IC50 is 10 µM.
On to `O=c1ccn([C@H]2O[C@@H](COP(=O)(O)OP(=O)(O)OP(=O)(O)O)[C@H](F)[C@@H]2O)c(=O)[nH]1` [Synthetic Example 21, 1-(3′-deoxy-3′-fluoro-β-L-ribofuranosyl)uracil 5′-triphosphate], for which the IC50 on HCV RNA polymerase is 3 µM.

Source of the values: patent US20040063651A1, “Remedies for hepatitis c” (priority 2000, published 2004).
